Results taken from patent US7247641B2, “Compounds, derivatives, compositions, preparation and uses” (MGI GP, Inc., priority 2001, dated 2007).

Assays:
[1] = tested on: ischemia and reperfusion of the heart in rabbits; conditions: cited from earlier work
[2] = tested on: MSU crystal induced neutrophil migration in Swiss albino mice; assay: MSU crystal-induced neutrophil recruitment (peritonitis gout model); assay type: in vivo, mouse; conditions: 6 h
Procedure: Male outbread Swiss albino mice (20-22 g body weight) were purchased from Banton and Kingsman (T. O. strain; Hull, Humberside) and maintained on a standard chow pellet diet with tap water ad libitum and a 12:00 h light/dark cycle. All animals were housed for 1 week prior to experimentation to allow body weight to reach 28-30 g.
1,11b-dihydrobenzopyrano[4,3,2-de ]isoquinolin-1-one was dissolved in 100% DMSO at room temperature at a concentration of 45 mg in 2 ml. The compound was then injected into the peritoneal cavity, so as each mouse received a single dose corresponding to 45 mg/2 ml/kg (e.g. 60 μl for a mouse of 30 g). Control mice received DMSO at 2 ml/kg i.p. A third group of mice which were left untreated were added to control for potential effects of the vehicle. […]
MSU crystal-induced neutrophil recruitment was tested as follows. […] Peritonitis was induced by injection of 3 mg MSU crystals in 0.5 ml PBS (0.1 M, pH 7.4), and the recruitment of neutrophils into the cavity evaluated at the 6 h time point (Getting et al., 1997, J. Pharmacol. Exp. Ther. 283: 123-130). […]
An aliquot (100 μl) of the lavage fluid was then diluted 1:10 in Turk's solution (0.01% crystal violet in 3% acetic acid). The samples were then vortexed and 10 μl of the stained cell solution were placed in a Neubauer haematocymometer and neutrophils numbers counted using a light microscope (Olympus B061). […]

[3] = tested on: focal cerebral ischemia in male Long-Evans rats; assay: Focal cerebral ischemia: right distal MCA cauterization with temporary bilateral CCA occlusion; assay type: in vivo, rat; conditions: 24 h, mean±SD
Procedure: Focal cerebral ischemia is produced by cauterization of the right distal MCA (middle cerebral artery) with bilateral temporary common carotid artery occlusion in male Long-Evans rats for 90 minutes. All procedures performed on the animals are approved by the University Institutional Animal Care and Use Committee of the University of Pennsylvania. A total of 42 rats (weights: 230-340 g) obtained from Charles River were used in this study. The animals fasted overnight with free access to water prior to the surgical procedure.
Two hours prior to MCA occlusion, varying amounts (control, n=14; 5 mg/kg, n=7; 10 mg/kg, n=7; 20 mg/kg, n=7; and 40 mg/kg, n=7) of the compound, 3,4-dihydro-5-[4-(1-piperidinyl)-butoxy]-1(2H)-isoquinolinone (“DPQ”) were dissolved in dimethyl sulfoxide (DMSO) using a sonicator. A volume of 1.28 ml/kg of the resulting solution was injected intraperitoneally into […].
The rats were then anesthetized with halothane (4% for induction and 0.8%-1.2% for the surgical procedure) in a mixture of 70% nitrous oxide and 30% oxygen. The body temperature was monitored by a rectal probe and maintained at 37.5±0.5° C. with a heating blanket regulated by a homeothermiic blanket control unit (Harvard Apparatus Limited, Kent, U.K.). A catheter (PE-50) was placed into the tail artery, and arterial pressure was continuously monitored and recorded on a Grass polygraph recorder (Model 7D, Grass Instruments, Quincy, Mass.). Samples for blood gas analysis (arterial pH, PaO2 and PaCO2) were also taken from the tail artery catheter and measured with a blood gas analyzer (ABL 30, Radiometer, Copenhagen, Denmark). Arterial blood samples were obtained 30 minutes after MCA occlusion.
The head of the animal was positioned in a stereotaxic frame, and a right parietal incision between the right lateral canthus and the external auditory meatus was made. Using a dental drill constantly cooled with saline, a 3 mm burr hole was prepared over the cortex supplied by the right MCA, 4 mm lateral to the sagittal suture and 5 mm caudal to the coronal suture. The dura mater and a thin inner bone layer were kept, care being taken to position the probe over a tissue area devoid of large blood vessels. The flow probe (tip diameter of 1 mm, fiber separation of 0.25 mm) was lowered to the bottom of the cranial burr hole using a micromanipulator. The probe was held stationary by a probe holder secured to the skull with dental cement. The microvascular blood flow in the right parietal cortex was continuously monitored with a laser Doppler flowmeter (FloLab, Moor, Devon, U.K., and Periflux 4001, Perimed, Stockholm, Sweden). […]

[4] = tested on: PARP; conditions: read-out: IC50 for inhibiting PARP; reported by Suto et al.; cited from earlier work

Oc1cccc2c(O)nccc12 [1,5-dihydroxyisoquinoline]
reduction in infarct size ([1]; single injection 1 mg/kg): 38-48%

O=C1N=Cc2cccc3c2C1c1ccccc1O3 (stereo not drawn) [1,11b-dihydrobenzopyrano[4,3,2-de]isoquinolin-1-one]
Neutrophils, mean ± S.E. ([2]; 45 mg/kg i.p. 1 h prior to 3 mg MSU crystals, n=8, vehicle group 6.30 ± 0.33): 2.85 ± 0.34 (8)* 10^6 per mouse | inhibition of cell influx vs. the vehicle group ([2]; 45 mg/kg i.p.): 55%

NC(=O)c1cccc(N)c1 [3-amino-benzamide]
reduction in infarct size in the heart ([1]; single injection 10 mg/kg, one minute before occlusion or before reperfusion): 32-42%

O=C1NCCc2c(OCCCCN3CCCCC3)cccc21 [DPQ, 3,4-dihydro-5-[4-(1-piperidinyl)-butoxy]-1(2H)-isoquinolinone]
damaged volume (infarct volume) ([3]; 5 mg/kg i.p. 2 h before and 2 h after MCA occlusion, control 165.2±34.0): 106.7±23.2 mm^3 | damaged volume (infarct volume) ([3]; 10 mg/kg i.p. 2 h before and 2 h after MCA occlusion, control 165.2±34.0): 76.4±16.8 mm^3 | damaged volume (infarct volume) ([3]; 20 mg/kg i.p. 2 h before and 2 h after MCA occlusion, control 165.2±34.0): 110.2±42.0 mm^3 | damaged volume (infarct volume) ([3]; 40 mg/kg i.p., no significant difference from control 165.2±34.0): 135.6±44.8 mm^3 | IC50 [4]: 40 nM
